These results are taken from ChEMBL document CHEMBL5725427, “7-hydroxy-indolinyl antagonists of P2Y1 receptor” (2017).

pKi: −log10 of the molar value.

The target in this assay is P2Y purinoceptor 1 (Homo sapiens, UniProt P47900). Description: Scintillation Proximity Assay (SPA): A SPA membrane binding assay was used to identify inhibitors of [33P] […] Binding reactions were performed in 384-well OptiPlates (PerkinElmer Life Sciences, Cat #6007299) in a volume of 50 μL containing 15 fmol of P2Y1 receptor (1.7 μg of total protein), 0.3 nM [33P] […] Reactions were allowed to proceed to completion at room temperature for 1 hour followed by centrifugation of the plate for 5 min. About 40 μL of the aqueous solution was aspirated. Plates were sealed and the [33P]. In general terms: SPA uses beads or plates that emit light when radiolabelled molecules are held near them.
Sequence of P2Y purinoceptor 1 (P47900 whole entry): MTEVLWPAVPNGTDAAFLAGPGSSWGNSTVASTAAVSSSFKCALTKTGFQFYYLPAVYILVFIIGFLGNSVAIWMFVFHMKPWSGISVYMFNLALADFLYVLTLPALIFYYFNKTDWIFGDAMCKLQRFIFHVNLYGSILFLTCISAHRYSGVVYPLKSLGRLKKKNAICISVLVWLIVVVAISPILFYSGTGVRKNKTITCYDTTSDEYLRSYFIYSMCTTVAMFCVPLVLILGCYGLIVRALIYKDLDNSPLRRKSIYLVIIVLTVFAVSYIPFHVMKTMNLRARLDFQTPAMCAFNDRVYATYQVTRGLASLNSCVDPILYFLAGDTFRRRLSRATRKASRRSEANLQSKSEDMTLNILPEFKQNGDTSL
Take `CC1(C)CN(c2ccccc2NC(=O)Nc2ccc(OC(F)(F)F)cc2)c2c(O)cc(F)c(-c3ccc(Cl)s3)c21`: the negative logarithm of the Ki (pKi) is 8.02. Turning to `CC1(C)CN(c2ccccc2NC(=O)Nc2ccc(OC(F)(F)F)cc2)c2c(O)c(F)cc(-c3nc4cc(Cl)ccc4s3)c21`, the pKi is 7.28. `CC1(C)CN(c2ccccc2NC(=O)Nc2ccc(OC(F)(F)F)cc2)c2c(O)ccc(-c3nc4ccc(Cl)cc4s3)c21` had a negative-log Ki (pKi) of 7.89. For `CC1(C)CN(c2ccccc2NC(=O)Nc2csc(Cl)n2)c2c(O)cc(F)c(-c3nc4cc(Cl)ccc4s3)c21`, the negative logarithm of the Ki (pKi) was 7.89. With `CC1(C)CN(c2ccccc2NC(=O)Nc2nc3ccc(Cl)nc3s2)c2c(O)cc(F)c(-c3nc4ccc(F)cc4s3)c21` the figure was 7.80. With `CC1(C)CN(c2ccccc2NC(=O)Nc2nc3ccc(Cl)cc3s2)c2c(O)cc(F)c(-c3nc4cc(Cl)ccc4s3)c21` the figure was 7.01; with `CC1(C)CN(c2ccccc2NC(=O)Nc2nc3ccc(F)cc3s2)c2c(O)cc(F)c(-c3nc4cc(Cl)ccc4s3)c21`, 7.32; with `CC1(C)CN(c2ccccc2NC(=O)Nc2nc3ccc(Cl)nc3s2)c2c(O)cc(F)c(-c3nc4cc(Cl)ccc4s3)c21`, 7.41. With `COc1cncc(-c2ccc(O)c3c2C(C)(C)CN3c2ccccc2NC(=O)Nc2ccc(OC(F)(F)F)cc2)c1` the figure was 8.00; with `CC1(C)CN(c2ccccc2NC(=O)Nc2nc3ccc(Cl)cc3s2)c2c(O)ccc(-c3nc4cc(F)ccc4s3)c21`, 7.77. In turn, `CC1(C)CN(c2ccccc2NC(=O)Nc2nc3ccc(Cl)nc3s2)c2c(O)cc(F)c(-c3ccc(Cl)s3)c21` gave a pKi of 8.09. With `CC1(C)CN(c2ccccc2NC(=O)Nc2ccc(OC(F)(F)F)cc2)c2c(O)ccc(-c3ccc(F)nc3)c21` the figure was 7.89; with `CC1(C)CN(c2ccccc2NC(=O)Nc2nc3ccc(F)cc3s2)c2c(O)ccc(-c3nc4ccc(Cl)cc4s3)c21`, 7.11; with `CC1(C)CN(c2ccccc2NC(=O)Nc2nc3ccc(Cl)cc3s2)c2c(O)cc(F)c(-c3nc4ccc(F)cc4s3)c21`, 7.05.

In general, pKi refers to −log10 of the Ki, conventionally taken in molar units. A lower pKi goes with a large Ki.
